# Data reported in US10202604B2, “Methods of using microRNA-141” (Stemirna Therapeutics Co., Ltd., priority 2016, dated 2019).
# Legend:
# prostate cancer tumors = test: Ki-67+ cells in miR-141-overexpressing tumors; format: in vivo
# prostate cancer cells = test: Cell death and senescence; format: cell-based; settings: miR-141 expression
# [1] = test system: E-Cadherin and ZEB-1 in PC3 and Du145 cells; test: Western blotting of E-Cadherin and ZEB-1; format: cell-based, human; settings: bulk Du145 and PC3 cells; 30 or 60 nM, 48 h
# Procedure: FIGS. 3A-3J show partial suppression of epithelial to mesenchymal transition by miR-141 and CD44 as a direct target of miR-141. FIGS. 3A-3B show qPCR analysis of epithelial to mesenchymal transition markers in bulk (FIG. 3A) or CD44^+ (FIG. 3B) Du145 cells transfected with the miR-141 oligos (30 nM; 48 h). Results were presented as the relative expression levels over the cells transfected with the NC oligos. […] GAPDH was used as control and the relative protein levels after normalizing to GAPDH and NC controls were indicated below each lane. […] Shown below is the actual sequence in the region with the mutated miR-141 binding sequence indicated in grey (below). […] Shown are representative images. […] Du145 cells were co-transfected with NC or miR-141 oligos (30 nM) together with pBabe empty vector or pBabe-CD44 vector. After 48 h, cells were harvested for invasion assays. Bars, mean±SD. *, P<0.05; **, P<0.01.
# CD44 = CD44 levels in endpoint tumors; format: in vivo; settings: tumors from miR-141 overexpressing cells vs control tumors
substance,measurement,setting,value
"miR-141: miR-141 mirVana mimics (Life Technologies); microRNA-141 oligonucleotide may have SEQ ID NO: 1; in some experiments over-expressed by lentiviral vectors (UAACACUGUCUGGUAAAGAUGG; listed as RNA, further chemistry not given here) [miR-141 mirVana mimics (Life Technologies); in some experiments over-expressed by lentiviral vectors]",Ki-67+ cells,prostate cancer tumors,reduced
same,effects on cell death and senescence,prostate cancer cells,minimal effects
same,E-cadherin (CDH1) protein level,[1],increased
same,ZEB1 protein level,[1],reduced
same,CD44 mRNA level in endpoint tumors,CD44,lower levels
same,CD44 protein level in endpoint tumors,CD44,lower levels
